We go through 3 compounds from ChEMBL document CHEMBL1132501, “Synthesis and anti-Helicobacter pylori activity of FR182024, a new cephem derivative” (1999).

Converted amounts (≈) assume the structure as drawn.

Format in all cases: functional
The test system of assay [1] is Helicobacter pylori. The assay can be described thus: The compound was evaluated in vitro for the minimum inhibitory concentration against Helicobacter pylori (13001).
The subject of assay [2] is Helicobacter pylori. The assay can be described thus: The compound was evaluated in vitro for the minimum inhibitory concentration against Helicobacter pylori (16021).
Assay [3] relates to Helicobacter pylori. As to the kind of experiment: The compound was evaluated in vitro for the minimum inhibitory concentration against Helicobacter pylori (9005).
The test system of assay [4] is Helicobacter pylori. The assay can be described thus: The compound was evaluated in vitro for the minimum inhibitory concentration against Helicobacter pylori (FP1757).
Assay [5] concerns Mus musculus. The assay can be described thus: The compound was evaluated in vivo for the therapeutic efficacy at 0.1 mg/kg in mouse infection model; 5/8.
Assay [6] deals with Mus musculus. The assay can be described thus: The compound was evaluated in vivo for the therapeutic efficacy at 0.32 mg/kg in mouse infection model; 8/8.
For assay [7], the system named is Mus musculus. The assay can be described thus: The compound was evaluated in vivo for the therapeutic efficacy at 0.1 mg/kg in mouse infection model; 0/8.
Assay [8] deals with Mus musculus. As to the kind of experiment: The compound was evaluated in vivo for the therapeutic efficacy at 0.32 mg/kg in mouse infection model; 1/8.
The test system of assay [9] is Mus musculus. As to the kind of experiment: The compound was evaluated in vivo for the therapeutic efficacy at 1.0 mg/kg in mouse infection model; 3/8.
Assay [10] has as its system Mus musculus. The assay can be described thus: The compound was evaluated in vivo for the therapeutic efficacy at 3.2 mg/kg in mouse infection model; 7/8.
The test system of assay [11] is Mus musculus. As to the kind of experiment: The compound was evaluated in vivo for the therapeutic efficacy at 0.32 mg/kg in mouse infection model; 0/8.
Assay [12] deals with Mus musculus. As to the kind of experiment: The compound was evaluated in vivo for the therapeutic efficacy at 3.2 mg/kg in mouse infection model; 0/8.
Assay [13] relates to Mus musculus. The assay can be described thus: The compound was evaluated in vivo for the therapeutic efficacy at 1.0 mg/kg in mouse infection model; 0/8.

For `Cc1nnc(SC2=C(C(=O)O)N3C(=O)[C@@H](NC(=O)Cc4ccccc4)[C@H]3SC2)s1`, the MIC (usually the lowest concentration that inhibits growth of the organism) in [1] is 0.00078 µg/mL (≈ 0.00174 µM); in assay [2], 0.0016 µg/mL (≈ 0.00357 µM); in [3], 0.00625 µg/mL (≈ 0.0139 µM); in [4], 0.00156 µg/mL (≈ 0.00348 µM). The Therapeutic efficacy in assay [5] is reported as 5; in assay [6], 8.
Regarding `CC1(C)S[C@@H]2[C@H](NC(=O)[C@H](N)c3ccc(O)cc3)C(=O)N2C1C(=O)O` (single isomer, unassigned) [AMOXICILLIN], the MIC in [1] came to 0.025 µg/mL (≈ 0.0684 µM); in assay [2], 0.025 µg/mL (≈ 0.0684 µM); in [3], 0.05 µg/mL (≈ 0.137 µM); in [4], 0.0125 µg/mL (≈ 0.0342 µM). Also, the Therapeutic efficacy in [7] came to 0; in [8] it was 1; in assay [9], 3; in assay [10], 7.
Consider `CC[C@H]1OC(=O)[C@H](C)[C@@H](O[C@H]2C[C@@](C)(OC)[C@@H](O)[C@H](C)O2)[C@H](C)[C@@H](O[C@@H]2O[C@H](C)C[C@H](N(C)C)[C@H]2O)[C@](C)(OC)C[C@@H](C)C(=O)[C@H](C)[C@@H](O)[C@]1(C)O` [CLARITHROMYCIN], for which the minimal inhibitory concentration (MIC) in assay [1] was 0.05 µg/mL (≈ 0.0668 µM); in assay [2] it was 50 µg/mL (≈ 66.8 µM); in assay [3], 0.2 µg/mL (≈ 0.267 µM); in assay [4], 0.1 µg/mL (≈ 0.134 µM). Moreover, the Therapeutic efficacy in assay [11], in [12] and in [13] was 0 throughout.
